In one assay the target is SARS polymerase (Severe acute respiratory syndrome coronavirus, UniProt P0C6X7). Briefly: biochemical. Set-up: species or system SARS virus.
For assay [1], the system named is human β-coronavirus strain OC43 or human α-coronavirus strain 229E. Briefly: Coronavirus assay (cytopathic effect, CellTiter-Glo, HeLa or MRC-5 cells). The class given is cell-based. The settings on record: Betacoronavirus 1; for pEC50: coronavirus strain OC43 or 229E not specified, 4 h pre-incubation, 5 days; for inhibition: at one or more of the concentrations 75 μM, 10 μM and 2 μM, strain OC43 or 229E not specified.

A further assay concerns MERS. The experiment in a line: microbe, parasite or virus in culture. The class given is cell-based. The following applies: Middle East respiratory syndrome-related coronavirus, 96 h.
Assay [2] concerns TC-83 strain Venezuelan equine encephalitis virus. Briefly: microbe, parasite or virus in culture. Format: cell-based.
A further assay concerns Chikungunya virus. Briefly: Chikungunya assay. Format: cell-based. The settings on record: 2 h pre-incubation.

The record followed here is patent publication US10307439B2, “Substituted nucleosides, nucleotides and analogs thereof” (priority 2014, dated 2019).

pEC50, pIC50: −log10 of the molar value.

As a reminder, the pIC50 is the IC50 on a negative log10 scale, so that one unit is a factor of ten. In the case of `C#C[C@@]1(O)[C@H](O)[C@@H](COP(=O)(O)OP(=O)(O)OP(=O)(O)O)O[C@H]1n1cnc2c(=O)[nH]c(N)nc21` [Compound 203], the pIC50 at SARS polymerase was above 5.00.

The term pEC50 denotes the negative decadic logarithm of the EC50, by convention in mol/L. The low end stands for a high EC50, the high end for a low EC50. Consider `CCOc1nc(N)nc2c1ncn2[C@@H]1O[C@](F)(COP(=O)(N[C@@H](C)C(=O)OC2CCCCC2)Oc2ccccc2)[C@@H](F)[C@@]1(C)O` (stereo partly drawn) [Compound 16], for which the pEC50 in assay [1] is above 5.00.

As a reminder, the inhibition is the percentage by which the read-out fell short of the control. Low readings indicate little suppression, high ones strong suppression. Broadly, the EC90 is the concentration needed for an effect of 90%. Higher therefore signals weaker potency. In the case of `CCOc1nc(N)nc2c1ncn2[C@@H]1O[C@](F)(COP(=O)(OCOC(=O)OC(C)C)OCOC(=O)OC(C)C)[C@@H](F)[C@@]1(C)O` [Compound 57], in assay [1], the inhibition is at least 50% and the pEC50 was above 5.00. In the assay on MERS, the 90% effect concentration (EC90) is below 10 µM.

`CCOc1nc(N)nc2c1ncn2[C@@H]1O[C@]2(F)COP(=O)(OC(C)C)O[C@H]2[C@@]1(C)F` (stereo partly drawn) [Compound 225] had an inhibition in assay [1] of at least 50%.

On SARS polymerase, `C[C@@]1(F)[C@H](O)[C@@](CF)(COP(=O)(O)OP(=O)(O)OP(=O)(O)O)O[C@H]1n1cnc2c(=O)[nH]c(N)nc21` [Compound 162] gave a pIC50 above 5.00.

Turning to `C[C@]1(F)[C@H](n2cnc3c(=O)[nH]c(N)nc32)O[C@](F)(COP(=O)(O)OP(=O)(O)OP(=O)(O)O)[C@H]1O` [Compound 19], the pIC50 on SARS polymerase is above 5.00.

In assay [1], `CCOc1nc(N)nc2c1ncn2[C@@H]1O[C@](F)(CO[P@@](=O)(N[C@@H](C)C(=O)OC2CCCCC2)Oc2ccccc2)[C@@H](O)[C@@]1(C)F` (single isomer, unassigned) [Compound 212b] showed an inhibition of at least 50% and a pEC50 above 5.00.

In the case of `C#C[C@]1(F)[C@H](n2cnc3c(=O)[nH]c(N)nc32)O[C@](F)(COP(=O)(O)OP(=O)(O)OP(=O)(O)O)[C@H]1O` [Compound 123], the pIC50 against SARS polymerase is above 5.00.

`C[C@]1(O)[C@H](n2cnc3c(=O)[nH]c(N)nc32)O[C@](F)(COP(=O)(O)OP(=O)(O)OP(=O)(O)O)[C@H]1F` [Compound 101] had a pIC50 at SARS polymerase above 5.00.

`C#C[C@]1(O)[C@H](n2cnc3c(=O)[nH]c(N)nc32)O[C@](F)(COP(=O)(O)OP(=O)(O)OP(=O)(O)O)[C@H]1F` [Compound 103] had a pIC50 at SARS polymerase above 5.00.

For the molecule `CC(C)OC(=O)OCOP(=O)(OCOC(=O)OC(C)C)OC[C@@]1(F)O[C@@H](n2ccc(=O)[nH]c2=O)[C@](C)(O)[C@@H]1O` [Compound 9], the pEC50 (in assay [2]; in the assay with Chikungunya virus) was above 5.00 each time.

In the case of `CCOc1nc(N)nc2c1ncn2[C@@H]1O[C@](F)(COP(=O)(N[C@@H](C)C(=O)OCC(C)(C)C)Oc2cccc3ccccc23)[C@@H](O)[C@@]1(C)F` (stereo partly drawn) [Compound 234], the inhibition in assay [1] is at least 50%.

`CCOc1nc(N)nc2c1ncn2[C@@H]1O[C@](F)(CO[P@](=O)(N[C@@H](C)C(=O)OC2CCCCC2)Oc2ccccc2)[C@@H](O)[C@@]1(C)F` (single isomer, unassigned) [Compound 212a]: in assay [1], the inhibition was at least 50% and the pEC50 is above 5.00.

`CCOc1nc(N)nc2c1ncn2[C@@H]1O[C@](F)(COP(=O)(OCOC(=O)OC(C)C)OCOC(=O)OC(C)C)[C@@H](O)[C@@]1(C)O` [Compound 55]: the inhibition in assay [1] was at least 50%. Besides, the pEC50 (in assay [1]; in assay [2]; in the assay with Chikungunya virus) was above 5.00 in each case.

With `CC(C)(C)C(=O)OCOP(=O)(OCOC(=O)C(C)(C)C)OC[C@H]1O[C@@H](n2ccc(=O)[nH]c2=O)[C@](C)(O)[C@@H]1O` [Compound 265], the EC90 in the assay on MERS fell in the range of 10 to 50 µM. Besides, the pEC50 (in assay [2]; with Chikungunya virus) was above 5.00 in each case.

In the assay with MERS, `CCOc1nc(N)nc2c1ncn2[C@@H]1O[C@](F)(CO[P@](=O)(N[C@@H](C)C(=O)OC2CCCCC2)Oc2ccccc2)[C@@H](O)[C@@]1(C)F` [Compound 25] showed an EC90 of 10 to 50 µM. For the same molecule, the pEC50 (in assay [2]; with Chikungunya virus) was above 5.00 in each case.

Take `C#C[C@]1(O)[C@H](n2cnc3c(OCC)nc(N)nc32)O[C@](F)(CO[P@](=O)(N[C@@H](C)C(=O)OC2CCCCC2)Oc2ccccc2)[C@H]1O` [Compound 27]: the EC90 with MERS was 10 to 50 µM.

In the assay on MERS, `C[C@H](NP(=O)(OC[C@H]1O[C@@H](n2cnc3c(=O)[nH]c(N)nc32)[C@](C)(Cl)[C@@H]1O)Oc1ccccc1)C(=O)OC1CCCCC1` (stereo partly drawn) [Compound 266] returned an EC90 below 10 µM.

For `C[C@@]1(O)[C@H](O)[C@@](CF)(COP(=O)(O)OP(=O)(O)OP(=O)(O)O)O[C@H]1n1cnc2c(=O)[nH]c(N)nc21` [Compound 34], the pIC50 against SARS polymerase was above 5.00.

Consider `CCOc1nc(N)nc2c1ncn2[C@@H]1O[C@](F)(COP(=O)(N[C@@H](C)C(=O)OC(C)C)Oc2ccccc2)[C@@H](F)[C@@]1(C)O` (stereo partly drawn) [Compound 22], for which the inhibition in assay [1] is at least 50%.

`CCOc1nc(N)nc2c1ncn2[C@@H]1O[C@H](COP(=O)(N[C@@H](C)C(=O)OC2CCCCC2)Oc2ccccc2)[C@@H](O)[C@@]1(C)Cl` (stereo partly drawn) [Compound 267] had an EC90 in the assay with MERS of 10 to 50 µM.

Consider `C[C@@]1(Cl)[C@H](O)[C@@H](COP(=O)(O)OP(=O)(O)OP(=O)(O)O)O[C@H]1n1cnc2c(=O)[nH]c(N)nc21` [Compound 246], for which the pIC50 on SARS polymerase was above 5.00.

In assay [1], `CCOc1nc(N)nc2c1ncn2[C@@H]1O[C@](F)(COP(=O)(OCOC(=O)OC(C)C)OCOC(=O)OC(C)C)[C@@H](O)[C@@]1(C)F` [Compound 83] gave an inhibition of at least 50% and a pEC50 above 5.00.

Turning to `CCOc1nc(N)nc2c1ncn2[C@@H]1O[C@](CN=[N+]=[N-])(COP(=O)(OCOC(=O)OC(C)C)OCOC(=O)OC(C)C)[C@@H](O)[C@H]1F` [Compound 179], the pEC50 in assay [1] was above 5.00.

`CCOc1nc(N)nc2c1ncn2[C@@H]1O[C@](CF)(COP(=O)(N[C@@H](C)C(=O)OC2CCCCC2)Oc2ccccc2)[C@@H](O)[C@@]1(C)O` (stereo partly drawn) [Compound 36] showed an EC90 in the assay with MERS below 10 µM.

As to `C[C@H](NP(=O)(OC[C@@]1(F)O[C@@H](n2cnc3c(=O)[nH]c(N)nc32)[C@](C)(O)[C@@H]1F)Oc1ccccc1)C(=O)OC1CCCCC1` (stereo partly drawn) [Compound 14], the inhibition in assay [1] was at least 50%.
